In ChEMBL document CHEMBL3612045, “3-Benzamides and 3,4,5-trimethoxyphenyl amines as calcium channel blockers” (Bioorg Med Chem, 2015):
Activity calls are given as the source filed them.

Legend:
Rattus norvegicus [1] = test: Analgesic activity in Sprague-Dawley rat model of spinal cord injury-induced neuropathic pain assessed as reduction in mechanical allodynia by measuring paw withdrawal threshold at 10 ug dosed intrathecally measured after 30 mins (reference value: 2.8 +/- 0.4 g); assay type: functional
Rattus norvegicus [2] = test: Analgesic activity in Sprague-Dawley rat model of spinal cord injury-induced neuropathic pain assessed as reduction in thermal hyperalgesia by measuring paw withdrawal latency time at 10 ug dosed intrathecally measured after 30 mins (reference value: […]); assay type: functional
Rattus norvegicus [3] = test: Analgesic activity in Sprague-Dawley rat model of spinal cord injury-induced neuropathic pain assessed as reduction in thermal hyperalgesia by measuring paw withdrawal latency time at 100 ug dosed intrathecally measured after 30 mins (reference value: […]); assay type: functional
[4] = biological target: T1, Voltage-dependent T-type calcium channel subunit alpha-1G (Homo sapiens, UniProt O43497); test: Inhibition of Cav3.1 channel (unknown origin) assessed as reduction in peak currents at 10 uM by whole cell patch-clamp method
T1 sequence (O43497 whole entry): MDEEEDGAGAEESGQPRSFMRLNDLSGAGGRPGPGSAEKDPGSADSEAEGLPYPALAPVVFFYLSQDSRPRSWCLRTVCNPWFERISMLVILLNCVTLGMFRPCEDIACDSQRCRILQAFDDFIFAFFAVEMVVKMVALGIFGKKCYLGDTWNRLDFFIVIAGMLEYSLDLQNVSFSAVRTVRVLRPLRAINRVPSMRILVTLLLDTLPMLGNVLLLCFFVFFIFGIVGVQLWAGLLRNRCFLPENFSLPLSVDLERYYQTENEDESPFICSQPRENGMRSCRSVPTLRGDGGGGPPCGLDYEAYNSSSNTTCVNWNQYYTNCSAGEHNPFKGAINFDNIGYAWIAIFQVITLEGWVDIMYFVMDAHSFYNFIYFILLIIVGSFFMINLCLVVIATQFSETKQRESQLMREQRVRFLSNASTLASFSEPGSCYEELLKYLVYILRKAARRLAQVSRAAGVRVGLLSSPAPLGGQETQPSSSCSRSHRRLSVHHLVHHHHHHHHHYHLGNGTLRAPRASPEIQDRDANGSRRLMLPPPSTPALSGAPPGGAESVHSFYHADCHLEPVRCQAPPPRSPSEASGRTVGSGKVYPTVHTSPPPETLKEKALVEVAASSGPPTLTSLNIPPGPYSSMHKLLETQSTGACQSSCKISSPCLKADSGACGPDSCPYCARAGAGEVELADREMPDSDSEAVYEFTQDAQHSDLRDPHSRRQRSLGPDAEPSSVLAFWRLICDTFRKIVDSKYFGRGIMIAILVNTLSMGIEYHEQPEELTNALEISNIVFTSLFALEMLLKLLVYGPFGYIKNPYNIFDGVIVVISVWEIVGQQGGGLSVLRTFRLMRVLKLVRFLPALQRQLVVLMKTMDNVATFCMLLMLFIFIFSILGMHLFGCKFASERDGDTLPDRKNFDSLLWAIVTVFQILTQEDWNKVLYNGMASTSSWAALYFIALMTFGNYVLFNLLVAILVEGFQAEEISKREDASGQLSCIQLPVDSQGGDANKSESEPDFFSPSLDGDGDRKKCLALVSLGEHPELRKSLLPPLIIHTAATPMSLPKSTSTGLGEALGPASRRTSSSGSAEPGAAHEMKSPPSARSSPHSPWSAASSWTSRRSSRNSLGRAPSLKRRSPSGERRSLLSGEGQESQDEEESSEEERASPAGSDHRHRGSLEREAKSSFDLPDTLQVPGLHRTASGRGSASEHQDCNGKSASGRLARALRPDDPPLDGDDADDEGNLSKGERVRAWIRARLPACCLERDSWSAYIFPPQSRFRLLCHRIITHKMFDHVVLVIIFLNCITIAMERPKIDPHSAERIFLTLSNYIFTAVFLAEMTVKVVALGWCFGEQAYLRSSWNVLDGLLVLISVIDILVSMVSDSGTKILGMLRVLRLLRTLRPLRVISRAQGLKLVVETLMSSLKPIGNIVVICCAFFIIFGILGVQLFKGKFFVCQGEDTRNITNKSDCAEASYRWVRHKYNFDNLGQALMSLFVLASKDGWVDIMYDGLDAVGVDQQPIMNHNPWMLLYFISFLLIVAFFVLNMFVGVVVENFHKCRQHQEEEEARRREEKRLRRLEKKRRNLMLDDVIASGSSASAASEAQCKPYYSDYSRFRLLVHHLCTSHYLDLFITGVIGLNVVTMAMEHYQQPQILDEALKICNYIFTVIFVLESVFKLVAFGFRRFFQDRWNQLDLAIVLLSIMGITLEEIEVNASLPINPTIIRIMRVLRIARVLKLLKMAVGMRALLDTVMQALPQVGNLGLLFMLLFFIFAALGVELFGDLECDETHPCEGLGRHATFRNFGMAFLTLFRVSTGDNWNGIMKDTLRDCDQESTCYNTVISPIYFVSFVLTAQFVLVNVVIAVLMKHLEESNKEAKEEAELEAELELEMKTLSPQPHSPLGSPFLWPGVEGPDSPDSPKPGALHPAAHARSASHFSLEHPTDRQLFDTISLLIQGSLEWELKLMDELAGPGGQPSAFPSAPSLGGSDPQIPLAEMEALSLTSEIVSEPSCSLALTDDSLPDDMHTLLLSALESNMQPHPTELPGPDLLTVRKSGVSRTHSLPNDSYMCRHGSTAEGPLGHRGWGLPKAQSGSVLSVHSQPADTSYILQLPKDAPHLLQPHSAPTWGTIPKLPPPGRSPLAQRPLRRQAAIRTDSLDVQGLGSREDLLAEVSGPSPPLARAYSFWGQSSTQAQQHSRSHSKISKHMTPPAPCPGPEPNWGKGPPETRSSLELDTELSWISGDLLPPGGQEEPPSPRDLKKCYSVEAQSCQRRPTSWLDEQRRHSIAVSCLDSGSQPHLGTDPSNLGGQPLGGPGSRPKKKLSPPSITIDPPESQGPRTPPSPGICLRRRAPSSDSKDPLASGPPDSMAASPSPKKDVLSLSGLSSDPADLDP

Rattus norvegicus [5] = test: Analgesic activity in Sprague-Dawley rat model of spinal cord injury-induced neuropathic pain assessed as reduction in mechanical allodynia by measuring paw withdrawal threshold at 100 ug dosed intrathecally measured after 30 mins (reference value: 2.8 +/- 0.4 g); assay type: functional
Rattus norvegicus [6] = test: Analgesic activity in Sprague-Dawley rat model of spinal cord injury-induced neuropathic pain assessed as reduction in thermal hyperalgesia by measuring paw withdrawal latency time at 50 ug dosed intrathecally measured after 30 mins (reference value: […]); assay type: functional
Rattus norvegicus [7] = test: Analgesic activity in Sprague-Dawley rat model of spinal cord injury-induced neuropathic pain assessed as reduction in mechanical allodynia by measuring paw withdrawal threshold at 50 ug dosed intrathecally measured after 30 mins (reference value: 2.8 +/- 0.4 g); assay type: functional
[8] = biological target: T2, Voltage-dependent N-type calcium channel subunit alpha-1B (Homo sapiens, UniProt Q00975); test: Inhibition of Cav2.2 channel (unknown origin) assessed as reduction in peak currents at 10 uM by whole cell patch-clamp method
Target sequence in this assay (Q00975 whole entry, looked up): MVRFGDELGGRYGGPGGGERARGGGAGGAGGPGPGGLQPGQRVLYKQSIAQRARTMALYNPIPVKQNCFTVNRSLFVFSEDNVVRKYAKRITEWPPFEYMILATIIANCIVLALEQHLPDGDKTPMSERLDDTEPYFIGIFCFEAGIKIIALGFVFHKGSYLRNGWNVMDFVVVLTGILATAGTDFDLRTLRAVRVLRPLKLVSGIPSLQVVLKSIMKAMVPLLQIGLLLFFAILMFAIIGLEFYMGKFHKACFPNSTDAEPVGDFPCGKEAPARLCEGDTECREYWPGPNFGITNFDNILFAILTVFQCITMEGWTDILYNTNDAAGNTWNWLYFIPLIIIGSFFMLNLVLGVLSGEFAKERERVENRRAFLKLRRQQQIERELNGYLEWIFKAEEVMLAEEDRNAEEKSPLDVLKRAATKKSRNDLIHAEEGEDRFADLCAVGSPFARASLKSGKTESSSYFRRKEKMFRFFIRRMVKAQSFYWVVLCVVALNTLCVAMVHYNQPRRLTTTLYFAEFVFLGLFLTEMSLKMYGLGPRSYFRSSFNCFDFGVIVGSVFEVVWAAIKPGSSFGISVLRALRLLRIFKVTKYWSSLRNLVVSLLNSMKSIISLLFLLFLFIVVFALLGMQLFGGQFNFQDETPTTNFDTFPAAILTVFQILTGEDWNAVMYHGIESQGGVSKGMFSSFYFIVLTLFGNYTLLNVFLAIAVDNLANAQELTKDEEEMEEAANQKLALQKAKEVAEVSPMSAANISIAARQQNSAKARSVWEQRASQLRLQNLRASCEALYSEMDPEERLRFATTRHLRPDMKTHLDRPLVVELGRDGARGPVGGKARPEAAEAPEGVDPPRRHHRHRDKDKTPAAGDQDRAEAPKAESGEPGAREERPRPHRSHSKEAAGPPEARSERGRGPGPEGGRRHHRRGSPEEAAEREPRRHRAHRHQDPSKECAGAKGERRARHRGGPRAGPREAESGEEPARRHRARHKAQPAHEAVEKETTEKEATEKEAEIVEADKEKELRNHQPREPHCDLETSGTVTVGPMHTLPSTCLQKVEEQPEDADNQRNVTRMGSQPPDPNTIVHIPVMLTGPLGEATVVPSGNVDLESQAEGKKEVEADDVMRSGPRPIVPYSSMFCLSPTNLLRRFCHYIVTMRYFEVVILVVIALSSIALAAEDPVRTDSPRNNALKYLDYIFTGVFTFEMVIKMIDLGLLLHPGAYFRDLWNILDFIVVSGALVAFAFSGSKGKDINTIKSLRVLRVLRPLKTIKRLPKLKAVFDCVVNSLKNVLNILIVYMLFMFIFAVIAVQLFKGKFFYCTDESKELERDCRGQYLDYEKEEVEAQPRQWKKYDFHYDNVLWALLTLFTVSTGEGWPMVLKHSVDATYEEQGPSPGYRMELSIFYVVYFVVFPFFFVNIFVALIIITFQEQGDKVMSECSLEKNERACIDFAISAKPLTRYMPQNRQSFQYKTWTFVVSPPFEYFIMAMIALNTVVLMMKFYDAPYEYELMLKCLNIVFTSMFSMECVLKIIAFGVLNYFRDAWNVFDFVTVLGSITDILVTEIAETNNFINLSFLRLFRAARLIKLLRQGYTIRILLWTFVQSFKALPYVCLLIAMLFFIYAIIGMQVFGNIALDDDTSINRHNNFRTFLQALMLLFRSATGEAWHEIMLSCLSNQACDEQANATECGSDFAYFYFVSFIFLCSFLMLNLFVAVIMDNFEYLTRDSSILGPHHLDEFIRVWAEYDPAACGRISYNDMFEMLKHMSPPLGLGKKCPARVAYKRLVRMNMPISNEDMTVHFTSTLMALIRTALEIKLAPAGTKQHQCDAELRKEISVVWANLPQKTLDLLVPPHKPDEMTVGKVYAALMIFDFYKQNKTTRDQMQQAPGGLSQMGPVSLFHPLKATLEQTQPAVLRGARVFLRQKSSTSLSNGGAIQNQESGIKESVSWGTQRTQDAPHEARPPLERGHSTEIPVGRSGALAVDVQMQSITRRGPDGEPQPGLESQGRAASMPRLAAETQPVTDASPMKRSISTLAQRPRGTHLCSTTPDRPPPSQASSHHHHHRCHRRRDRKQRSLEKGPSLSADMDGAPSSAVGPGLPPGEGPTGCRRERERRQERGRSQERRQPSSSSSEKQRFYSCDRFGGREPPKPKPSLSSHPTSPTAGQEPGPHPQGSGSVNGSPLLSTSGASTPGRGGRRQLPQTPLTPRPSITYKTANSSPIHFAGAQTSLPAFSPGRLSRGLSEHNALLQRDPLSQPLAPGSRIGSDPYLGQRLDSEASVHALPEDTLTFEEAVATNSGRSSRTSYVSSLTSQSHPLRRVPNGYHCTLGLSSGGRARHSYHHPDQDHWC

[9] = biological target: T1, Voltage-dependent T-type calcium channel subunit alpha-1G; test: Inhibition of Cav3.1 channel (unknown origin) assessed as reduction in peak currents by whole cell patch-clamp method
[10] = biological target: T2, Voltage-dependent N-type calcium channel subunit alpha-1B; test: Inhibition of Cav2.2 channel (unknown origin) assessed as reduction in peak currents by whole cell patch-clamp method
Target sequence in this assay (Q00975 whole entry): as the sequence (Q00975 whole entry, looked up) above

Rattus norvegicus [11] = test: Effect on hind limb locomotion in Sprague-Dawley rat model of spinal cord injury-induced neuropathic pain assessed as Basso-Beattie-Bresnahan scores at 10 to 100 ug dosed via intrathecal route; assay type: ADME, organism-based, Hindlimb; settings: in vivo, icv_or_intrathecal

SMILES | inhibition [4] | inhibition [8] | IC50 [9] | IC50 [10] | other results
N#Cc1ccc(Oc2ccc(-c3ccc(CNc4cccc(C(N)=O)c4)o3)cc2)cc1 | 53% | 21.6% | 7.4 µM | – | Activity (Rattus norvegicus [1]): inactive; Activity (Rattus norvegicus [2]): inactive; Activity (Rattus norvegicus [3]): inactive; Activity (Rattus norvegicus [5]): inactive; Activity (Rattus norvegicus [6]): inactive; Activity (Rattus norvegicus [7]): inactive
COc1cc(CNCc2ccc(-c3cccc(C(F)(F)F)c3)o2)cc(OC)c1OC | 86.6% | 81.6% | 2.5 µM | 6.7 µM | –
NC(=O)c1cccc(NCc2cc(-c3ccc(Cl)cc3)on2)c1 | 25.2% | – | – | – | –
NC(=O)c1cccc(NCc2ccc(-c3cccc(C(F)(F)F)c3)o2)c1 | 39.3% | – | – | – | –
COc1cc(CNCc2ccc(Oc3ccc(C#N)cc3)cc2)cc(OC)c1OC | 60.4% | 54.9% | 6.4 µM | 9.4 µM | –
NC(=O)c1cccc(NCc2c[nH]c3ccc(Cl)cc23)c1 | 39.9% | – | – | – | –
NC(=O)c1cccc(NCc2ccc(-c3ccc(Cl)cc3)o2)c1 | 14.5% | – | – | – | –
COc1cc(CNCc2ccc(-c3ccc(Cl)cc3)o2)cc(OC)c1OC | 91.3% | 80.2% | 1.9 µM | 4.3 µM | Activity (Rattus norvegicus [1]): 2.6 g; Time (Rattus norvegicus [2]): 5.8 s; Time (Rattus norvegicus [3]): 8.9 s; Activity (Rattus norvegicus [5]): 11.1 g; Time (Rattus norvegicus [6]): 8.3 s; Activity (Rattus norvegicus [7]): 9.16 g; Activity (Rattus norvegicus [11]): Non-toxic
COc1cc(CNCc2ccc(-c3ccncc3)cc2)cc(OC)c1OC | 21.9% | – | – | – | –
COc1ccc(-c2ccc(CNCc3cc(OC)c(OC)c(OC)c3)o2)cc1Cl | 77.6% | 70.6% | 2.4 µM | 5.9 µM | –
COc1ccc(-c2ccc(CNc3cccc(C(N)=O)c3)o2)cc1Cl | 41.6% | – | – | – | –
COc1cc(CNCc2ccc(N3CCOCC3)cc2)cc(OC)c1OC | 9.8% | – | – | – | –
COc1cc(CNCc2c[nH]c3ccc(Cl)cc23)cc(OC)c1OC | 64.2% | 75.2% | 5.2 µM | 9.5 µM | –
NC(=O)c1cccc(NCc2ccc(N3CCOCC3)cc2)c1 | 4.1% | – | – | – | –
COc1cc(CNCc2ccc(-c3cncnc3)cc2)cc(OC)c1OC | 38.3% | – | – | – | –
